Assay results published in PubChem BioAssay (NCI).
“And” between values parts separate entries of the source, which are not always exact repeats. Equal values may be shown once.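 How tested: cells in 96-well plates exposed to compound for 48 hours at five concentrations. GI50: concentration for 50% inhibition of growth. TGI: total growth inhibition.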

Columns and labels:
Assay in all cases: inhibition of tumour cell growth, NCI panel, 48 h
[1] = test system: K-562 leukemia
[2] = test system: SF-539 CNS
[3] = test system: HCC-2998 colon
[4] = test system: HCT-15 colon
[5] = test system: M14 melanoma
[6] = test system: PC-3 prostate
[7] = test system: LOX IMVI melanoma
[8] = test system: MDA-MB-435
[9] = test system: SK-OV-3 ovarian
[10] = test system: SNB-75 CNS

SMILES	GI50 [1]	TGI [1]	GI50 [2]	TGI [2]	GI50 [3]	TGI [3]	GI50 [4]	TGI [4]	GI50 [5]	TGI [5]	GI50 [6]	TGI [6]	GI50 [7]	TGI [7]	GI50 [8]	TGI [8]	GI50 [9]	TGI [9]	TGI [10]	GI50 [10]
C=C1C(=O)O[C@H]2[C@H]1CC/C(COC(=O)CSCSCC(=O)OC/C1=C/CC[C@@]3(C)O[C@H]3[C@H]3OC(=O)C(=C)[C@@H]3CC1)=C\CC[C@@]1(C)O[C@@H]21	0.554 µM	> 100 µM	1.47 µM	2.89 µM	1.8 µM	3.46 µM	1.33 µM	2.83 µM	1.55 µM	3.22 µM	1.86 µM	4.14 µM	1.3 µM	2.65 µM	2 µM	4.56 µM	5.1 µM	16.5 µM		
CCc1ccccc1NC(=O)C1=C(C)NC(C)=C(C(=O)Nc2ccccc2CC)C1c1ccccc1Cl		> 100 µM		> 100 µM		> 100 µM				> 100 µM				> 100 µM				> 100 µM	> 100 µM	
O=C1CC(O)CC(=O)C1=C(O)CCCCCCCCCCc1ccccc1 (stereo unspecified)		> 100 µM		> 100 µM		> 100 µM				> 100 µM				> 100 µM				> 100 µM	> 100 µM	
OC(Cc1ccncc1)C(Cl)(Cl)Cl (stereo unspecified)	> 100 µM	> 100 µM	> 100 µM	> 100 µM			> 100 µM	> 100 µM	> 100 µM	> 100 µM	21.8 µM	> 100 µM	> 100 µM	> 100 µM	> 100 µM	> 100 µM	> 100 µM	> 100 µM	> 100 µM	> 100 µM
C=C(C)[C@@H]1CC[C@]2(C)CC[C@]3(C)[C@H](CC[C@@H]4[C@@]5(C)CC[C@H](O)C(C)(C)[C@@H]5CC[C@]43C)[C@@H]12		> 68.8 µM		> 100 µM		> 100 µM		> 100 µM		> 100 µM		98.4 µM		36.3 µM		40.4 µM			> 80.1 µM	
Cc1c2ccncc2c(C)c2c1[nH]c1ccc(OC(C)C)cc12		4.4 µM		3.36 µM		3.48 µM		2.74 µM		2.96 µM				2.51 µM				2.77 µM	3.36 µM	
COc1cc(C(O)CCBr)c(OC)cc1C (stereo unspecified)		> 100 µM		31.3 µM				> 100 µM		33.9 µM		> 73 µM		> 100 µM		> 42.6 µM		> 73.6 µM	> 100 µM	
CN(O)C(=O)SCC(NC(=O)CCC(N)C(=O)O)C(=O)NCC(=O)O (stereo unspecified)	> 2 µM and 812 µM	> 2000 µM		> 2 µM		> 2 µM	> 2000 µM		> 2000 µM	> 2000 µM			668 µM	> 2000 µM			> 2000 µM	> 2000 µM	> 2000 µM	> 2000 µM
Cc1ccc(NCC(=O)N2CC(=O)Nc3ccccc32)c(C)c1		> 100 µM		> 100 µM		> 100 µM		> 100 µM		> 100 µM				> 100 µM				> 100 µM	> 100 µM	
C=C1C(=O)O[C@@H]2C[C@@H](C)[C@@H]3C=CC(=O)[C@@]3(C)[C@@H](O)[C@H]12		8.34 µM		9.36 µM		2.85 µM		9.54 µM		5.63 µM		7.22 µM		2.01 µM		3.39 µM			2.58 µM	
CCOC(=O)/C(C=Nc1ccc(-c2nc3ccccc3[nH]2)cc1)=C(/C)O	4.51 µM	14.8 µM					10.1 µM	24.4 µM	12.7 µM	32 µM	27.2 µM	> 50 µM	9.13 µM	16.5 µM	14.9 µM	43.4 µM	22.2 µM	> 50 µM		
Cc1cc(CC(=O)NCCO)n(CCO)c(=O)c1		> 100 µM		> 100 µM		> 100 µM				> 100 µM				> 100 µM					> 100 µM	
CC[C@@H]1c2c(C#N)ncn2-c2cnc(Nc3ccc(C(=O)NC4CCN(C5CCN(CC6CC6)CC5)CC4)cc3OC)nc2N1C1CCCC1	0.0337 µM	0.308 µM	0.0493 µM	0.888 µM	0.04 µM and 0.0308 µM	1.09 µM and 0.162 µM	0.379 µM	1.44 µM	0.0316 µM	1.35 µM	0.0438 µM	2.08 µM	0.0368 µM	1.06 µM			0.0384 µM and 0.122 µM	1.04 µM and 1.64 µM	1.26 µM	0.0452 µM
CCOC(=O)c1c(C)nc2c(c1N)CC(=O)N2Cc1ccc(OC)cc1	> 100 µM	> 100 µM	7.03 µM	> 100 µM	> 100 µM	> 100 µM			> 100 µM	> 100 µM	> 100 µM	> 100 µM	> 100 µM	> 100 µM	> 100 µM	> 100 µM			25.8 µM	3.4 µM
O=[N+]([O-])c1ccc(C[P+](c2ccccc2)(c2ccccc2)c2ccccc2)cc1		> 100 µM		> 100 µM		> 100 µM		> 100 µM		> 100 µM				> 100 µM				> 100 µM	> 100 µM	
CCN(CC)c1c(C(=O)/C=C/c2ccc(Cl)cc2)c(-c2ccccc2)nn(C)c1=O		7.27 µM				3.24 µM		3.31 µM		4.01 µM				3.48 µM				18.7 µM	7.5 µM	
COC12C=C/C(=C(/C(=O)OCc3cncnc3)C(=O)CCCCCCCCC3(OC)C=C/C(=C(/C(=O)OCc4cncnc4)C(=O)CCCCCCCC1)O3)O2	0.188 µM	1.14 µM	0.952 µM	2.47 µM	0.821 µM	1.61 µM	0.308 µM	1.34 µM	0.167 µM	1.61 µM			0.155 µM	0.524 µM	0.099 µM	0.208 µM	1.23 µM	5.31 µM	6.84 µM	1.19 µM
COC(=O)NC(=O)c1cn(C2OC(CO)C(O)C2O)c(=O)[nH]c1=O (stereo unspecified)		> 100 µM		> 100 µM		> 100 µM		> 100 µM		> 100 µM				> 100 µM				> 100 µM	> 100 µM	
